Literature values, collected in publication PMC11101992 (Clinical and Translational Science, 2024).
Values belong to the compound of their own block, whether it stands above or below them.

healthy subjects with rash (900 mg): 22%
Compound: CN[C@@H]1COc2c(S(=O)(=O)NC(=O)Nc3c4c(cc5c3CCC5)CCC4)cnn2C1 [GDC‐2394]

Compound: CN1CCC[C@]1(C)/C=C/S(=O)(=O)NC(=O)Nc1c2c(cc3c1CCC3)CCC2 [ZYIL1]
IL‐1β release inhibition (IL‐1β release; healthy subjects): > 90%
drug‐related skin reactions (in words) (early clinical trials): did not yet report any drug‐related skin reactions

Compound: CS(=O)(=O)CCC#N [dapansutrile]
IL‐1β release reduction (in words) (IL‐1β release; healthy subjects and patients with gout flare): only partially reduced
